Assay results as given in ChEMBL document CHEMBL1201862, “PubChem BioAssay data set” (2004).
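Compound exposure: 48 hours, 5 concentrations, 96-well plates. At the GI50, growth is halved.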 Calls of active or inactive are those of the source. Cut-off read from the data, not from the text of the source: active = GI50 up to about 1.1 µM and inactive = higher.

Key:
Assay in all cases: NCI anticancer screen, dose series, 48 h
786-0 = tested on: 786-0
CAKI-1 = tested on: CAKI-1
COLO 205 = tested on: COLO 205
DU-145 = tested on: DU-145
HCT-116 = tested on: HCT-116
HOP-92 = tested on: HOP-92
HT-29 = tested on: HT-29
Hs-578T = tested on: Hs-578T
LXFL 529 = tested on: LXFL 529
M19-MEL = tested on: M19-MEL
MDA-MB-435 = tested on: MDA-MB-435
Malme-3M = tested on: Malme-3M
NCI-H23 = tested on: NCI-H23
NCI/ADR-RES = tested on: NCI/ADR-RES
OVCAR-4 = tested on: OVCAR-4
RXF 393 = tested on: RXF 393
SK-MEL-2 = tested on: SK-MEL-2
SNB-75 = tested on: SNB-75
U-251 = tested on: U-251
UACC-257 = tested on: UACC-257

Measured: GI50

CCCCCCCCCCCCCCCCCCN(C)C(COC)COP(=O)([O-])OCC[N+](C)(C)C (stereo not given)
inactive: 786-0 1.74 µM | CAKI-1 3.69 µM | COLO 205 1.58 µM | DU-145 10.1 µM | HCT-116 4.68 µM | HOP-92 1.89 µM | HT-29 2.94 µM | Hs-578T 3.19 µM | LXFL 529 4.26 µM | M19-MEL 3.25 µM | MDA-MB-435 15.6 µM | Malme-3M 14.9 µM | NCI-H23 8.45 µM | NCI/ADR-RES 24.5 µM | OVCAR-4 3.69 µM | RXF 393 1.57 µM | SK-MEL-2 18.7 µM | SNB-75 2.97 µM | U-251 1.97 µM | UACC-257 14.6 µM
